By inhibition is commonly meant the share of the control response that was lost under treatment. Read a low inhibition as a weak effect. In general, IC50 refers to the concentration that inhibits the measured activity by half. Read a high IC50 as weaker potency in that assay.

A value given as a limit tells only on which side of the number the result lay.

This is an account of results in patent US10017481B2, “Conformationally constrained, fully synthetic macrocyclic compounds” (POLYPHOR AG, priority 2012, dated 2018).

The target in data set [1] is T1, Thyrotropin-releasing hormone receptor (TRH receptor) (Homo sapiens, UniProt P34981).
T1 construct: expressed in transfected cells; host or cells: Ca2+ optimized hematopoietic cell lines (rat)
T1 sequence (P34981 1-398): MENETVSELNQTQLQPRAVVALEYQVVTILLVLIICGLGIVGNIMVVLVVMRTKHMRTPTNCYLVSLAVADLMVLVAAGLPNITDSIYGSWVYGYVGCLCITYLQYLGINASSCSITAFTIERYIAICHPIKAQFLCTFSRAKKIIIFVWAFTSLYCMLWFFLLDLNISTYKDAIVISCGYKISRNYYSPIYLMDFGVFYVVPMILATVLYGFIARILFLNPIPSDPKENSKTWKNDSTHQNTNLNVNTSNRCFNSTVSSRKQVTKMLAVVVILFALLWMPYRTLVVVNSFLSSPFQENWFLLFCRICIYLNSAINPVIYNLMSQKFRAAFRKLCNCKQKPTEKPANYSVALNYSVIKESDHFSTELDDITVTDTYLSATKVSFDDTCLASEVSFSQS
As to the kind of experiment: Ca2+ flux (FLIPR) assay, TRH receptor, agonist/antagonist mode. Type of data set: cell-based. The settings on record: antagonist mode. The procedure:
Biological and Pharmacological Methods 1. Ca^2+ Flux Assays for the GPCRs Oxytocin Receptor (OT Receptor), Thyrotropin-Releasing Hormone Receptor (TRH Receptor) and Bombesin Receptor Subtype 3 (BB3 Receptor)
Assays were performed on a FLIPR^TETRA fluorometric imaging plate reader (Molecular Devices) with ScreenWorks Version 2 (Molecular Devices) as device operating and data analysis software.
Dose dependent agonist and antagonist activities were determined. Percentage activation and percentage inhibition values were determined.
Percentage activation was determined upon initial addition of the sample compounds followed by 10 minutes' incubation at 25° C. Following compound incubation, reference agonists were added at EC80 to determine percentage inhibition.
Reference agonists were purchased from reputable commercial vendors and prepared according to each ligand's specifications. All handling of ligands were done to ensure proper control throughout the experiments.
Example compounds were weighed on a Microbalance (Mettler MX5) and dissolved in 100% DMSO to a final concentration of 2.5 mM and subsequently diluted into the assay buffer.
The assay buffer was a supplemented HBSS (Hank's Balanced Salt Solution). HBSS was supplemented with 20 mM HEPES (4-(2-hydroxyethyl)-piperazin-1-ethansulfonic acid) and 2.5 mM Probenecid (Sigma P8761).
GPCR assays were performed using Ca^2+ optimized hematopoietic cell lines (rat) with cultures never exceeding 90% confluency. Cells were harvested and seeded (from cultures at less than 90% confluency) at 50000 cells/well for a 96-well plate (12500 cells/well for 384). After seeding, the assay plates were incubated for 45 minutes at room temperature. After room temperature incubation, the assay plates were incubated at 37° C. 5% CO2 for 24 hours prior to assaying.
All GPCR assays were performed using Fluo-8 Ca^2+ dye.
Ca^2+ dye was prepared at 1× dye concentration in GPCR assay buffer. After 24 hours of incubation, cells were washed with GPCR assay buffer, and then Ca^2+-dye (100 μL/well) was added.
The plates were incubated for 90 minutes at 30° C. 5% CO2 prior to FLIPR assay.
Compound plates were prepared to add 50 μL/well during the agonist assay mode. During the FLIPR assay, 50 μL/well from the compound plate was diluted 3-fold into the existing 100 μL/well from the dye loading step. Therefore all compounds were prepared as 3× the final concentration desired in the assay.
After completion of the first single addition assay run, assay plate was removed from the FLIPR Tetra and placed at 25° C. for 7 minutes before antagonist assay.
Using the EC80 values determined during the agonist assay, all pre-incubated sample compound and reference antagonist (if applicable) wells were stimulated at the EC80 of the reference agonist. As reference ligands for these assays their obvious natural ligands oxytocin (OT), thyrotropin-releasing hormone (TRH) and bombesin (6-14) [BN(6-14)] were used.
After the addition of the reference agonist fluorescence was monitored for 180 sec using FLIPR Tetra.
From the FLIPR data, with negative control correction enabled, the maximum statistic for each well was exported and percentage activation relative to Emax control was calculated.
A general note: Calcium assays in cells follow changes in intracellular calcium, usually with a dye or a luminescent sensor.

Data set [2] addresses T2, human leukotriene B4 receptor (LTB4R) (Homo sapiens, UniProt Q15722).
T2 construct: host or cells: CHO mito-i-Photina cells
Briefly: Human LTB4 receptor cell-based assay (CHO mito-i-Photina, flash luminescence). The settings on record: antagonist mode. The source says: 3. Human LTB4 Receptor Cell-Based Assay
CHO mito-i-Photina® cells (Axxam SpA) stably expressing the human leukotriene B4 receptor (LTB4R) were used for monitoring activation of the target LTB4R, a GPCR (Gαq), by measuring the flash luminescence of Ca^2+ sensitive photoprotein as reporter system with FLIPR^TETRA screening instrumentation (Molecular Devices) upgraded with an ICCD Camera (MDC). For data quality check and data analysis a Genedata Screener 10.0.3 was used, and for curve fitting of reference agonist and antagonist GraphPad Prism Software.
The reference agonist LTB4 and antagonist U-75302 were purchased from reputable commercial vendors and prepared according to each ligand's specifications. All handling of ligands were done to ensure proper control throughout the experiments.
The steps of the implemented workflow and data analysis are mainly as follows:
mito-1-Photina cells are seeded (10000 c/w in 384 MTP; in complete medium 25 μL/well) for 24 hours, removed from the incubator, equilibrated at room temperature for 1 h, freed from the growth medium, loaded with 30 μL/well of Tyrode's buffer containing 10 μM coelenterazine, and incubated for 3 hours at rt.
All compounds were tested at 10 μM with triplicate data points.
After incubation, the volume in all the wells is flattened to 20 μL by aspiration with CyBi®-Vario pipettor. The First Injection (10 μL of test compounds or reference antagonist U-75302 in Tyrode's buffer+DMSO 0.5%) is performed by the FLIPR^TETRA and the kinetic response is monitored over a period of 120 seconds. Incubation at rt for 10 min. is followed by the Second Injection (15 μL of LTB4 at EC80 in Tyrode's buffer) and monitoring of the kinetic response over a period of 120 seconds.
The possible kinetic response is divided into two distinct phases: Monitoring the kinetic response after the First Injection is indicated as Compound Addition (CA) and measures the agonistic activity of compounds; monitoring the kinetic response after the Second Injection is indicated as Target Activation (TA) and measures the antagonistic activity of a compound.
The activity determination (IC50 determination) experiment is performed using LTB4 as agonist (100 nM corresponding to EC80). Selected compound are tested in 8 doses intraplate dose response with quadruplicate data points.

Data set [3] can be described thus: Plasma stability assay, human plasma. The class given is in vitro ADME. In short, it runs like this: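 Compounds at 10 μM were incubated at 37 °C in triplicate in sodium citrate-stabilized plasma (human, or pooled mixed-gender CD-1 mouse). Samples taken at 0–240 min were acetonitrile-quenched and analyzed by HPLC/MS/MS. Remaining peak area as % of t0 gave endpoint stability (%) and half-life (min).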

Data set [4] in a line: Metabolic stability assay, human liver microsomes. The class given is in vitro ADME. The settings on record: human microsomes, 10 μM, 37° C. In short, it runs like this:
(§1)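 Pooled human (50 donors, mixed gender) or CD-1 mouse microsomes at 1 mg/mL protein, 10 μM compound, 100 mM potassium phosphate with NADPH-regenerating system, 37 °C in duplicate. Samples at 0, 5, 10, 20, 60 min analysed by HPLC/MS/MS; turnover as % of 0-min value and T½ (min) calculated.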
In general terms: Liver microsomes are vesicles of endoplasmic reticulum, rich in cytochrome P450 enzymes.

Data set [5] in a line: Metabolic stability assay, CD-1 mouse microsomes. Type of data set: in vitro ADME. The settings on record: CD-1 mouse microsomes, 10 μM, 37° C. In short, it runs like this: as §1

T2 sequence (Q15722 whole entry): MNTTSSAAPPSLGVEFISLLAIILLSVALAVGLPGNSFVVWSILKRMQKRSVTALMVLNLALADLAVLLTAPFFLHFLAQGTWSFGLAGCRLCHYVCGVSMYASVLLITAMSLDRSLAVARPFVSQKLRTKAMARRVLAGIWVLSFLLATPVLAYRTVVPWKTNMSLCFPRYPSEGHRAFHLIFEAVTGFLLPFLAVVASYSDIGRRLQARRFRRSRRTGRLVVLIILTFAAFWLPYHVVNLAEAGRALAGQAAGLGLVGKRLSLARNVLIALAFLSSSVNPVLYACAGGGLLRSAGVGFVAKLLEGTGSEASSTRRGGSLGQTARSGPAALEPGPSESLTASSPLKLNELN

The compound `O=C(Cn1ccnc1)N[C@H]1C[C@H]2COc3cccc(c3)-c3ccccc3C(=O)NCC[C@@H](NC(=O)Cc3cccc4ccccc34)C(=O)N2C1` [Ex. 332, 2-(1H-imidazol-1-yl)-N-[(12R,16S,18S)-12-{[2-(1-naphthyl)acetyl]amino}-8,13-dioxo-20-oxa-9,14-diazatetracyclo[19.3.1.0^2,7.0^14,18]pentacosa-1(25),2,4,6,21,23-hexaen-16-yl]acetamide] gave an inhibition at 10 µM in data set [1] of 29%.
The compound `COc1ccc2c(c1)-c1cccc(c1)C(=O)N(C)[C@H](C(=O)NCc1cccnc1)CCC(=O)N[C@H](C)CO2` [Ex. 50, (10R,15S)-4-methoxy-10,16-dimethyl-12,17-dioxo-N-(3-pyridinylmethyl)-8-oxa-11,16-diazatricyclo[16.3.1.0^2,7]docosa-1(22),2,4,6,18,20-hexaene-15-carboxamide] displayed a 50% inhibitory concentration (IC50) in data set [2] of 1970 nM. Further, at 10 µM the inhibition in data set [2] (10 μM) was 100%. The “Plasma Stability 240 min hum [% remain.]” value in data set [3] (human plasma, 240 min, 10 μM, 37° C.) was 100 % remain. In addition, the half-life at 10 μM was more than 240 min in data set [3] (human, plasma); more than 60 min in data set [4] (both sexes, liver microsomes, 1 mg/ml protein, read-out: Metabolic Stability T ½ [min] hum); 40 min in data set [5] (both sexes, 1 mg/ml protein, read-out: Metabolic Stability T ½ [min] mouse/(rat)). Also, the “Metabolic Stability 60 min hum [% remain.]” value in data set [4] (60 min) is 53 % remain. Moreover, the “Metabolic Stability 60 min mouse/(rat) [% remain.]” value in data set [5] (60 min) turned out to be 34 % remain.
In data set [1], `O=C(CN1CCCC1)N[C@H]1C[C@H]2COc3cccc(c3)-c3ccccc3C(=O)NCC[C@@H](NC(=O)Cc3cccc(Cl)c3)C(=O)N2C1` [Ex. 334, 2-(3-chlorophenyl)-N-[(12R,16S,18S)-8,13-dioxo-16-{[2-(1-pyrrolidinyl)acetyl]amino}-20-oxa-9,14-diazatetracyclo[19.3.1.0^2,7.0^14,18]pentacosa-1(25),2,4,6,21,23-hexaen-12-yl]acetamide] yielded an inhibition at 10 µM of 40%.
The same measure, in the same setting: to `O=C(Cc1cccc2ccccc12)N[C@@H]1CCNC(=O)c2ccccc2-c2cccc(c2)OC[C@@H]2C[C@H](NC(=O)Nc3cccnc3)CN2C1=O` [Ex. 333, N-[(12R,16S,18S)-8,13-dioxo-16-{[(3-pyridinylamino)carbonyl]amino}-20-oxa-9,14-diazatetracyclo[19.3.1.0^2,7.0^14,18]pentacosa-1(25),2,4,6,21,23-hexaen-12-yl]-2-(1-naphthyl)acetamide] belongs 35%.
In data set [1], `O=C(CN1CCCC1)N[C@H]1C[C@H]2COc3cccc(c3)-c3ccccc3C(=O)NCC[C@@H](NC(=O)Cc3cccc4ccccc34)C(=O)N2C1` [Ex. 7, N-[(12R,16S,18S)-8,13-dioxo-16-{[2-(1-pyrrolidinyl)acetyl]amino}-20-oxa-9,14-diazatetracyclo[19.3.1.0^2,7.0^14,18]pentacosa-1(25),2,4,6,21,23-hexaen-12-yl]-2-(1-naphthyl)acetamide] came in with an IC50 of 1400 nM and an inhibition at 10 µM of 91%.
In turn, `O=C(CN1CCCC1)N[C@H]1C[C@H]2COc3cccc(c3)-c3ccccc3C(=O)NCC[C@@H](NC(=O)CC3CCCCC3)C(=O)N2C1` [Ex. 335, 2-cyclohexyl-N-[(12R,16S,18S)-8,13-dioxo-16-{[2-(1-pyrrolidinyl)acetyl]amino}-20-oxa-9,14-diazatetracyclo[19.3.1.0^2,7.0^14,18]pentacosa-1(25),2,4,6,21,23-hexaen-12-yl]acetamide] showed an inhibition at 10 µM in data set [1] of 34%.
In data set [1], `O=C(CN1CCCC1)N[C@H]1C[C@H]2COc3cccc(c3)-c3ccccc3C(=O)NCC[C@@H](NC(=O)Nc3cccc4ccccc34)C(=O)N2C1` [Ex. 336, N-[(12R,16S,18S)-12-{[(1-naphthylamino)carbonyl]amino}-8,13-dioxo-20-oxa-9,14-diazatetracyclo[19.3.1.0^2,7.0^14,18]pentacosa-1(25),2,4,6,21,23-hexaen-16-yl]-2-(1-pyrrolidinyl)acetamide] displayed an IC50 of 8200 nM and an inhibition at 10 µM of 48%.
